Data on 28 compounds can be found in patent US20090105283A1, “3-HYDROQUINAZOLIN-4-ONE DERIVATIVES FOR USE AS STEAROYL CoA DESATURASE INHIBITORS” (priority 2007, published 2009).

SMILES strings stand for the structures.

In the assay the target is T1, stearoyl-CoA desaturase (SCD) (Rattus norvegicus, UniProt P07308).
T1 construct: The microsomes were quickly thawed and added to assay buffer so that a concentration of 0.4 mg/ml was achieved; from tissue
T1 sequence (P07308 1-358): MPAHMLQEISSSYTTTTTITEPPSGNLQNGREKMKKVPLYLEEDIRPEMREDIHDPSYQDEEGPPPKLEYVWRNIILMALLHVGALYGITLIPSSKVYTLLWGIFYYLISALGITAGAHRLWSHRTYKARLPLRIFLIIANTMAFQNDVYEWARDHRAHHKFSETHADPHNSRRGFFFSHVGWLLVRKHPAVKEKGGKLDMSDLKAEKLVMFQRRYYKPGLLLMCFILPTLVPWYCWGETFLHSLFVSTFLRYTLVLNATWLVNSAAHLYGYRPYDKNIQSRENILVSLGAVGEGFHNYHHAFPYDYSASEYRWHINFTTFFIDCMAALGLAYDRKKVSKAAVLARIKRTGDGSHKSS
The assay is described as follows: SCD assay with rat liver microsomes ([3H]stearoyl CoA, adapted from Talamo and Bloch). The class given is biochemical. As to conditions: Table 1; rat liver microsomes 0.2 mg/ml assay final, [3H]stearoyl CoA substrate, 30 min preincubation, 45 min reaction, room temperature. The source says: Male Spraque Dawley Rats were placed on regimented fasting protocol for one week to stimulate SCD enzymatic activity. 48-hour periods were alternated between feeding and fasting to induce and down-regulate SCD activity with SCD activity being induced via carbohydrate rich diet prior to liver perfusion and collection.
The rats were anesthetized with Isoflurane inhalation anesthetic, the liver perfused with cold phosphate buffered saline (PBS), weighed, and chilled in cold homogenization buffer (250 mM sucrose, 10 mM Tris, 1 mM EDTA, pH 7.6.
The livers were finely minced and placed in homogenization tube. 40 mL of homogenization buffer was added to the homogenization tube and the liver homogenized and centrifuged in a pre-chilled […] for 10 min at 4° C.
Following centrifugation, the supernatant was collected and the pellet removed and discarded. The supernatant was centrifuge at 10,000 G for 35 minutes. Following centrifugation, the supernatant was collect and the pellet discarded. The supernatant was then centrifuged in a pre-chilled 45-Ti rotor at 130,000 G (41,000 RPM) for 90 minutes at 4° C.
The supernatant was then aspirated off and the collected microsomal pellet washed in 25 mL of Glycerol PBS (1×PBS 7.4, 20% Glycerol) and resuspended in 4-5 volumes of Glycerol PBS.
The protein concentration of the microsomal preparation was determined by BCA assay (Pierce) and the microsomes were aliquoted and stored at −80° C.
Biobeads were ground to a smaller size in a mortar and pestle and resuspended in 3.6% TCA. The beads were then filtered through […] mesh.
SCD was determined in the desaturase assay buffer. This assay buffer contained 0.1 M Tris buffer, pH 7.2, 2 mM NADH, 4.8 mM ATP, 0.5 mM CoA, 4.8 mM MgCl2, and 0.1% BSA.
1 μl of each compound of Formula I was added to an assay plate by a low volume (0.5-10 μL) multichannel pipette. A DMSO control was also prepared. The microsomes were quickly thawed and added to assay buffer so that a concentration of 0.4 mg/ml was achieved (0.2 mg/ml assay final). 50 μl of the microsome suspension in assay buffer was then added into each well in the compound assay plate, the plate was covered, and the microsomes preincubated with the compounds for 30 minutes on the orbital shaker, 50-75 rpm, at room temperature.
The reaction mixtures were then incubated for 45 minutes on the orbital shaker at 50-75 rpm at room temperature.
The reaction was terminated by the addition of 10 μl of 21% trichloroacetic acid (TCA) to the reaction mixture followed incubation on the orbital shaker for 30 minutes at 50-75 rpm at room temperature followed by centrifugation for 5 minutes at 3700 rpm.
50 μl of a 6% Bio-Bead suspension in H2O was added to the reaction mixture and the assay plate was sealed. The Bio-Bead mixture was incubated on the orbital shaker for 1 hour, 100-150 rpm at room temperature, and then the mixture was centrifuged at 2000 g for 5 minutes to pellet the Bio-Beads.
25 μl of the supernatant was harvested from each well and transferred to a detection plate. 100 μl of OptiPhase SuperMix scinitillation cocktail (containing sufficient NaOH to neutralize the TCA) was added and the solutions mixed by vigorous shaking (300-400 rpm) for 5 minutes at room temperature.
For orientation: Microsomes from liver hold many membrane-bound enzymes, among them those of drug oxidation.

In general, IC50 refers to the point on the concentration scale where inhibition reaches its midpoint. Higher therefore signals lower potency. On to `COCCNC(=O)Nc1ccc2ncn(Cc3ccc(Cl)c(Cl)c3)c(=O)c2c1` [XCIII, N-{3-[(3,4-dichlorophenyl)methyl]-4-oxo(3-hydroquinazolin-6-yl)}[(2-methoxyethyl)amino]carboxamide], for which the midpoint of inhibition, the IC50, lay at 6200 nM. Then `CC(=O)OCC(=O)Nc1ccc2ncn(Cc3cccc(C(F)(F)F)c3)c(=O)c2c1` [XCIV, [N-(4-oxo-3-{[3-(trifluoromethyl)phenyl]methyl}-3-hydroquinazolin-6-yl)carbamoyl]methyl acetate], with 1700 nM; and `O=C(CO)Nc1ccc2ncn(Cc3ccc(Cl)c(F)c3)c(=O)c2c1` [XCIX, N-{3-[(4-chloro-3-fluorophenyl)methyl]-4-oxo(3-hydroquinazolin-6-yl)}-2-hydroxyacetamide], with 1160 nM. Then `O=C(CO)Nc1ccc2ncn(Cc3cccc(C(F)(F)F)c3)c(=O)c2c1` [XCV, 2-hydroxy-N-(4-oxo-3-{[3-(trifluoromethyl)phenyl]methyl}(3-hydroquinazolin-6-yl))acetamide], with 1380 nM; and `CC(=O)OCC(=O)Nc1ccc2ncn(Cc3ccc(C(F)(F)F)cc3)c(=O)c2c1` [XCVI, [N-(4-oxo-3-{[4-(trifluoromethyl)phenyl]methyl}-3-hydroquinazolin-6-yl)carbamoyl]methyl acetate], with 2740 nM. Then `O=C(CO)Nc1ccc2ncn(Cc3ccc(C(F)(F)F)cc3)c(=O)c2c1` [XCVII, 2-hydroxy-N-(4-oxo-3-{[4-(trifluoromethyl)phenyl]methyl}(3-hydroquinazolin-6-yl))acetamide], with 3160 nM; and `CC(=O)OCC(=O)Nc1ccc2ncn(Cc3ccc(Cl)c(F)c3)c(=O)c2c1` [XCVIII, (N-{3-[(4-chloro-3-fluorophenyl)methyl]-4-oxo-3-hydroquinazolin-6-yl}carbamoyl)methyl acetate], with 1320 nM; and `Cc1ccc(OC(=O)Nc2ccc3ncn(Cc4ccc(Cl)c(Cl)c4)c(=O)c3c2)cc1` [XI, N-{3-[(3,4-dichlorophenyl)methyl]-4-oxo(3-hydroquinazolin-6-yl)}(4-methylphenoxy)carboxamide], with 2700 nM. Compound `O=C(Nc1ccc2ncn(Cc3ccc(Cl)c(Cl)c3)c(=O)c2c1)Oc1ccc(F)cc1` [XII, N-{3-[(3,4-dichlorophenyl)methyl]-4-oxo(3-hydroquinazolin-6-yl)}(4-fluorophenoxy)carboxamide] displayed a 50% inhibitory concentration (IC50) of 13000 nM. `COC(=O)Nc1ccc2ncn(Cc3ccc(Cl)c(Cl)c3)c(=O)c2c1` [XIII, N-{3-[(3,4-dichlorophenyl)methyl]-4-oxo(3-hydroquinazolin-6-yl)}methoxycarboxamide]: inhibition was half-maximal at 4700 nM (IC50).

On to `C=CCOC(=O)Nc1ccc2ncn(Cc3ccc(Cl)cc3)c(=O)c2c1` [XIV, N-{3-[(4-chlorophenyl)methyl]-4-oxo(3-hydroquinazolin-6-yl)}prop-2-enyloxycarboxamide], for which half-maximal inhibition (IC50) required 25700 nM. Then `CC(=O)NCC(=O)Nc1ccc2ncn(Cc3ccc(Cl)c(Cl)c3)c(=O)c2c1` [XIX, 2-(acetylamino)-N-{3-[(3,4-dichlorophenyl)methyl]-4-oxo(3-hydroquinazolin-6-yl)}acetamide], with 11700 nM. In the case of `O=C(COc1ccccc1)Nc1ccc2ncn(Cc3ccc(F)c(Cl)c3)c(=O)c2c1` [XL, N-{3-[(3-chloro-4-fluorophenyl)methyl]-4-oxo(3-hydroquinazolin-6-yl)}-2-phenoxyacetamide], the concentration for half-maximal inhibition (IC50) came out at 9500 nM. Then `O=C(COc1ccccc1)Nc1ccc2ncn(Cc3ccc4ccsc4c3)c(=O)c2c1` [XLI, N-[3-(benzo[b]thiophen-6-ylmethyl)-4-oxo(3-hydroquinazolin-6-yl)]-2-phenoxyacetamide], with 8000 nM; and `O=C(CCC(=O)c1ccccc1)Nc1ccc2ncn(Cc3ccc(Cl)c(Cl)c3)c(=O)c2c1` [XLII, N-{3-[(3,4-dichlorophenyl)methyl]-4-oxo(3-hydroquinazolin-6-yl)}-4-oxo-4-phenylbutanamide], with 2170 nM; and `O=C(COc1cccc(F)c1)Nc1ccc2ncn(Cc3ccc(Cl)cc3)c(=O)c2c1` [XLIII, N-{3-[(4-chlorophenyl)methyl]-4-oxo(3-hydroquinazolin-6-yl)}-2-(3-fluorophenoxy)acetamide], with 6400 nM.

Regarding `O=C(COc1ccccc1)Nc1ccc2c(=O)n(Cc3ccc(Cl)cc3)cnc2c1` [XLIV, N-{3-[(4-chlorophenyl)methyl]-4-oxo(3-hydroquinazolin-7-yl)}-2-phenoxyacetamide], inhibition was half-maximal at 1600 nM (IC50).

Compound `O=C(COc1cccnc1)Nc1ccc2c(=O)n(Cc3ccc(Cl)cc3)cnc2c1` [XLIX, N-{3-[(4-chlorophenyl)methyl]-4-oxo(3-hydroquinazolin-7-yl)}-2-(3-pyridyloxy)acetamide] had an IC50 of 2500 nM. Then `O=C(Nc1ccc2ncn(Cc3ccc4sccc4c3)c(=O)c2c1)OCc1ccccc1` [XLV, N-[3-(benzo[b]thiophen-5-ylmethyl)-4-oxo(3-hydroquinazolin-6-yl)](phenylmethoxy)carboxamide], with 860 nM; and `O=C(Nc1ccc2ncn(Cc3ccc(F)c(Cl)c3)c(=O)c2c1)OCc1ccccc1` [XLVI, N-{3-[(3-chloro-4-fluorophenyl)methyl]-4-oxo(3-hydroquinazolin-6-yl)}(phenylmethoxy)carboxamide], with 450 nM.

Compound `CC(=O)OCC(=O)Nc1ccc2ncn(Cc3ccc(Cl)c(Cl)c3)c(=O)c2c1` [XLVII, (N-{3-[(3,4-dichlorophenyl)methyl]-4-oxo-3-hydroquinazolin-6-yl}carbamoyl)methyl acetate] registered an IC50 of 100 nM.

Compound `O=C(Nc1ccc2c(=O)n(Cc3ccc(Cl)cc3)cnc2c1)OCc1ccccc1` [XLVIII, N-{3-[(4-chlorophenyl)methyl]-4-oxo(3-hydroquinazolin-7-yl)}(phenylmethoxy)carboxamide] registered an IC50 of 90 nM. Then `O=C(COc1ccccc1)Nc1ccc2ncn(Cc3ccc(Cl)c(Cl)c3)c(=O)c2c1` [XV, N-{3-[(3,4-dichlorophenyl)methyl]-4-oxo(3-hydroquinazolin-6-yl)}-2-phenoxyacetamide], with 220 nM; and `O=C(Nc1ccc2ncn(CCc3ccc(Cl)cc3)c(=O)c2c1)OCc1ccccc1` [XVI, N-{3-[2-(4-chlorophenyl)ethyl]-4-oxo(3-hydroquinazolin-6-yl)}(phenylmethoxy)carboxamide], with 470 nM; and `COc1ccc(OCC(=O)Nc2ccc3ncn(Cc4ccc(Cl)c(Cl)c4)c(=O)c3c2)cc1` [XVII, N-{3-[(3,4-dichlorophenyl)methyl]-4-oxo(3-hydroquinazolin-6-yl)}-2-(4-methoxyphenoxy)acetamide], with 2980 nM. Consider `O=C(COc1ccc(F)cc1)Nc1ccc2ncn(Cc3ccc(Cl)c(Cl)c3)c(=O)c2c1` [XVIII, N-{3-[(3,4-dichlorophenyl)methyl]-4-oxo(3-hydroquinazolin-6-yl)}-2-(4-fluorophenoxy)acetamide], for which the IC50 came to 2100 nM. Then `Cc1cc(C)cc(OCC(=O)Nc2ccc3ncn(Cc4ccc(Cl)c(Cl)c4)c(=O)c3c2)c1` [XX, N-{3-[(3,4-dichlorophenyl)methyl]-4-oxo(3-hydroquinazolin-6-yl)}-2-(3,5-dimethylphenoxy)acetamide], with 2920 nM.

On to `Cc1cccc(C)c1OCC(=O)Nc1ccc2ncn(Cc3ccc(Cl)c(Cl)c3)c(=O)c2c1` [XXI, N-{3-[(3,4-dichlorophenyl)methyl]-4-oxo(3-hydroquinazolin-6-yl)}-2-(2,6-dimethylphenoxy)acetamide], for which the IC50 was 3450 nM.
